Measured values taken from patent publication US9642839B2, “Substance having tyrosine kinase inhibitory activity and preparation method and use thereof” (Institute of Radiation Medicine, China Academy of Military …, priority 2013, dated 2017).

Columns and labels:
[1] = test system: c-Met; details: MHCC97-H cells, 2 μM versus 1 μM SU11274
Procedure: The medium was changed once every 1-2 days. […] The supernatant was discarded, and fresh medium was added for subculture.
SU11274 (purchased from Sigma) is a specific c-Met kinase inhibitor which may block activation of c-Met. […] After incubation with the compounds for 2 h, the cells were harvested and total protein was extracted. Western blot assay was carried out with c-Met phosphorylated and non-phosphorylated antibodies, ERK phosphorylated and non-phosphorylated antibodies, Akt phosphorylated and non-phosphorylated antibodies (all purchased from Cell Signaling), and GAPDH antibody (purchased from Santa Cruz).

[2] = test system: lung cancer cell A549; assay: Lung orthotopic tumor formation model; type: in vivo, BALB/c nude mice; details: for Tumor inhibition rate / Weight of tumor: 6 administrations; for Average weight (X ± S), End: animal weight at end, in g (unit assumed)
Procedure: The medium was changed once every 1-2 days. […] The subcultured tumor cells were digested into suspensions under a sterile condition, and orthotopically injected into BALB/c nude mice at the left chest between the third and fourth ribs (3.0×10^6 cells/mouse, 30 μl). The inoculation needle entered into the pulmonary lobe at a depth of about 5 mm. The inoculation day is labeled as DO. Seven days later, animals were weighed and randomized into groups based on body weight.
Method: Animal models were randomized into three groups, vehicle control group (DMSO injected intraperitoneally), intraperitoneal low dose group (18 mg/kg), and intraperitoneal high dose group (36 mg/kg). The animals received treatment once every 24 hours. After 6 times of successive administration, animals were kept for another 30 days. At the end of this experiment, animals were sacrificed, and dissected to obtain lungs. Tumor was dissected and weighed.

[3] = target: TrkA (Homo sapiens, UniProt P04629); assay: Western blot, NGF-induced TrkA phosphorylation and signaling pathway in SK-N-SH cells; type: cell-based; details: 0.05-1.0 μM, 500 ng/mL NGF
Sequence of TrkA (P04629 33-796, species assumed): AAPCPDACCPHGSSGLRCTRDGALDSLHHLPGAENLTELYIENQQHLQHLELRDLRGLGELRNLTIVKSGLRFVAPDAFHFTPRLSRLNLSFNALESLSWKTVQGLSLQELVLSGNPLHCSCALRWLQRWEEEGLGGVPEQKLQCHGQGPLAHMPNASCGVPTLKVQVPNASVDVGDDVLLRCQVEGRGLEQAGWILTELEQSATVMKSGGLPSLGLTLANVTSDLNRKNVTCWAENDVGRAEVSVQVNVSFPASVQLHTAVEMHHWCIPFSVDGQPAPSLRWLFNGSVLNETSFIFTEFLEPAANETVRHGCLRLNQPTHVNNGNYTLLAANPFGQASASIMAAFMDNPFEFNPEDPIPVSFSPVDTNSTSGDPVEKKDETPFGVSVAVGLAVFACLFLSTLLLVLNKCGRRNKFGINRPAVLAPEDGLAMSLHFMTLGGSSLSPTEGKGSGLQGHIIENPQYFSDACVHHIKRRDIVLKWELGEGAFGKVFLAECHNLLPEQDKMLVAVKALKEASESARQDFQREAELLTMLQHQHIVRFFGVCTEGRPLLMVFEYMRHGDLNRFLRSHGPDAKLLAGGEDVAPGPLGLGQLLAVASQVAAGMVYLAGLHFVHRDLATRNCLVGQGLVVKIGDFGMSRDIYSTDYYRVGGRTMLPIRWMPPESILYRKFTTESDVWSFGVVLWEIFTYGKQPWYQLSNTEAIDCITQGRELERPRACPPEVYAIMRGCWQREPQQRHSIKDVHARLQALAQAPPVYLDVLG
Procedure: The medium was changed once every 1-2 days. […] 500 ng/mL NGF or 200 ng/ml BDNF (if not added, marked as “-”) were added to stimulate the cells for 5 min. After cell lysis, total protein was extracted. Western blot assay was carried out with TrkA phosphorylated and non-phosphorylated (p-TrkA) antibodies, TrkB phosphorylated and non-phosphorylated (p-TrkB) antibodies, ERK phosphorylated and non-phosphorylated (p-ERK) antibodies, Akt phosphorylated and non-phosphorylated (p-Akt) antibodies, and GAPDH antibody.

[4] = test system: protein tyrosine kinase (PTK); assay: PTK activity assay with mouse brain tissue extract (ELISA, OD 492 nm); type: biochemical; details: at 400 μM
Procedure: Tyrosine kinase buffer: 10 mL 1M HEPES (pH 7.5), 0.4 mL 5% BSA/PBS, 0.2 mL 0.1M Na3VO4, and 1 mL 5M NaCl were added to 88.4 mL double distilled water (DDW) (HEPES: Amresco; Na3VO4: Sigma).
Extraction of tissue extract PTK: mouse brain tissue was quickly removed and weighed, followed by addition of five-fold volumes of pre-cooled homogenization buffer for homogenization. After centrifugation at 4° C., 1,000 g for 10 min, nuclei and cell debris were removed. The supernatant S1 was collected and centrifuged at 4° C., 10,000 g for 20 min, and then the supernatant S2 was collected. The precipitate P2, which represents the crude membrane protein fraction, was retained. S2 included cytoplasmic protein, and was used for testing protein tyrosine kinase (PTK) activity. In the detection of the membrane protein fraction, two-fold volumes of lysis buffer was added to P2, and the resultant was placed on ice for 10 min and centrifuged at 4° C., 10,000 g for 10 min. The supernatant S3, which represents the crude membrane protein including soluble membrane protein, was collected for testing PTK activity. Protein content in cytoplasm or membrane protein was detected by using BCA protein concentration kit (purchased from Beyotime Institute of Biotechnology). The tissue extract was stored at −70° C.
Coating of 96-well plate: PTK substrate was dissolved and added in an amount of 100 μl to each well. The plate was covered with its lid, and incubated at 4° C. overnight (10-12 hours). Then it was washed with 200 μl elution buffer once, and dried at 37° C. for 2 h. After that, it was washed with 10 mM PBS once, dried at room temperature, and then stored at 4° C. for further use.
Groups: blank control: 80 μl 1× tyrosine kinase buffer containing ATP+20 μl 1× tyrosine kinase buffer; negative control: 80 μl 1× tyrosine kinase buffer containing ATP+10 μl 1× tyrosine kinase buffer+7 μl tissue extract+3 μl 1× tyrosine kinase buffer; positive control: 80 μl 1× tyrosine kinase buffer containing ATP+10 μl Gefitinib+7 μl tissue extract+3 μl 1× tyrosine kinase buffer (first, the positive drug was allowed to interact with the tyrosine kinase tissue extract at room temperature for 10 min, and meanwhile the tissue extract for the negative control group was also placed at room temperature for 10 min, and then 80 μl 1× tyrosine kinase buffer containing ATP was added to respective groups); vehicle control: 80 μl 1× tyrosine kinase buffer containing ATP+10 μl DMSO+7 μl tissue extract+3 μl 1× tyrosine kinase buffer; drugs to be screened: 80 μl 1× tyrosine kinase buffer containing ATP+10 μl drug to be tested +7 μl tissue extract+3 μl 1× tyrosine kinase buffer.
PTK activity assay: 1× tyrosine kinase buffer was prepared by evenly mixing 1 mL (10×) tyrosine kinase buffer with 9 mL DDW. The tissue extract was diluted with 1× tyrosine kinase buffer appropriately, mixed with it gently and evenly, and placed on ice. ATP stock solution was dissolved by evenly mixing 48 μl ATP stock solution with 1 mL 1× tyrosine kinase buffer, and placed on ice. The microplate reader was added in respective wells with the groups formulated as above, covered with the lid, and incubated at room temperature for 30 min. The microplate reader was washed with 200 μl elution buffer and tapped until the residual buffer was removed, and this procedure was repeated for five times. To each well, 100 μl antibody diluent (antibody elution buffer diluted at a ratio of 1:2000) was added. The reader was covered with the lid, and incubated at room temperature for 30 min. OPD solution was prepared by addition of 4 mg OPD into a mixture of 4.86 mL 0.1 mol/L citric acid solution and 5.14 mL 0.2 mol/L Na2HPO4 solution, followed by addition of 50 μl 30% H2O2 to allow for complete dissolution, and then was protected from light. The antibody solution was removed. The reader was washed with 200 μl elution buffer and tapped until the residual buffer was removed, and this procedure was repeated for five times.

[5] = test system: L02 cells; assay: MTS cell proliferation, normal liver cells; type: cell-based; details: Homo sapiens, L02, normal hepatic cells, 72 hours
Procedure: […] After culture at 37° C., 5% CO2 for 72 hours, MTS reagent (Promega Corporation) were added for further culture for 2-4 h.

[6] = test system: HepG2 cells; assay: Subcutaneous tumor-bearing nude mice model; type: in vivo; details: HepG2 s.c. nude mice; 16 mg/kg intraperitoneal, once every 24 h, 6 administrations; by tumor weight
Source text: (§1) The cells were washed with PBS twice, and suspended.

[7] = test system: NCI-H460 cells; assay: Subcutaneous tumor-bearing nude mice model; type: in vivo; details: NCI-H460 s.c. nude mice; 16 mg/kg intraperitoneal, once every 24 h, 6 administrations; by tumor weight
Source text: as §1

[8] = intraperitoneal high dose 36 mg/kg
[9] = intraperitoneal low dose 18 mg/kg

## Cc1ccccc1NS(=O)(=O)c1ccc2c(c1)/C(=C/c1nc3ccccc3[nH]1)C(=O)N2 [Indo 5, 3-(1H-benzimidazol-2-methylene)-5-(2-methylphenylaminosulfo)-2-indolone]
[1]
  Inhibitory effect on c-Met phosphorylation versus positive control: comparable to the positive control SU11274
[2]; [8]
  Tumor inhibition rate: 40.7%
  Weight of tumor: 0.224 ± 0.07 g
  Average weight (X ± S), End: 20.4 ± 0.3
[2]; [9]
  Tumor inhibition rate: 23.8%
  Weight of tumor: 0.288 ± 0.08 g
  Average weight (X ± S), End: 19.5 ± 0.7
[3]
  Phosphorylation of TrkA and downstream ERK: significantly inhibited
[4]
  Inhibition rate on tyrosine kinase: 53.4%
[5]
  IC50: 20.9 µM
[6]
  Tumor inhibition rate: 61%
[7]
  Tumor inhibition rate: 59%
